Measured values as given in patent publication US20080312435A1, “Imine Compound” (TAISHO PHARMACEUTICAL CO., LTD., priority 2004, published 2008).

Key:
human CB2 receptor = molecular target: T1, human CB2 receptor (Homo sapiens, UniProt P34972); test: Human CB2 receptor binding inhibition test ([3H]CP-55,940, CHO membrane fractions); settings: [3H]CP-55,940, membrane fractions of CHO cells stably expressing human CB2 receptor, 25° C., 2 hours; read-out: CB2 IC50 (Inhibition of binding to human CB2 receptor)
T1 construct: expressed in transfected cells
Procedure, shortened: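 Membranes from CHO-DHFR(−) cells stably expressing human CB2 used for [3H]CP-55,940 binding; filter-bound radioactivity counted by scintillation after washes with 0.1% BSA buffer. Nonspecific binding defined with 2.0 μM CP-55,940; IC50 for inhibition of specific binding.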

human CB1 receptor = molecular target: T2, human CB1 receptor (Homo sapiens, UniProt P21554); test: Human CB1 receptor binding inhibition test; settings: CHO-DHFR(−) cells stably expressing human CB1 receptor, same manner as Experimental Example 1
T2 construct: expressed in transfected cells
Protocol: Human CB1 Receptor Binding Inhibition Test
The CHO-DHFR(−) cells capable of stably expressing a CB1 receptor were prepared in the same manner as in Experimental Example 1. The binding test to the human CB1 receptor was performed to obtain 50% inhibitory concentration (IC50 value) of a test compound.

T2 sequence (P21554 whole entry): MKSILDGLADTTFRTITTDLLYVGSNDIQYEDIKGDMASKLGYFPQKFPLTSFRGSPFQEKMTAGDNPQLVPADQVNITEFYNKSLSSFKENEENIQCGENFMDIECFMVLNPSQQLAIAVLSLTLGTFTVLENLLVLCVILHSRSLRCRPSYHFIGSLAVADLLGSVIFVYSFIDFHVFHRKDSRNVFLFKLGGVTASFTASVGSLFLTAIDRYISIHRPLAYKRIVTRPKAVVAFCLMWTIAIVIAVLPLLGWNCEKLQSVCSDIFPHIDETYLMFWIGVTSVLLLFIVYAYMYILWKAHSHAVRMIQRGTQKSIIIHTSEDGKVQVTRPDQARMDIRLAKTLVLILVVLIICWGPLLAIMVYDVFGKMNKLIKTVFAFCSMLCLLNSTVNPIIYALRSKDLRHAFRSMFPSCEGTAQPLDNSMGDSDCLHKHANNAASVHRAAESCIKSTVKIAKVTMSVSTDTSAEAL
T1 sequence (P34972 whole entry): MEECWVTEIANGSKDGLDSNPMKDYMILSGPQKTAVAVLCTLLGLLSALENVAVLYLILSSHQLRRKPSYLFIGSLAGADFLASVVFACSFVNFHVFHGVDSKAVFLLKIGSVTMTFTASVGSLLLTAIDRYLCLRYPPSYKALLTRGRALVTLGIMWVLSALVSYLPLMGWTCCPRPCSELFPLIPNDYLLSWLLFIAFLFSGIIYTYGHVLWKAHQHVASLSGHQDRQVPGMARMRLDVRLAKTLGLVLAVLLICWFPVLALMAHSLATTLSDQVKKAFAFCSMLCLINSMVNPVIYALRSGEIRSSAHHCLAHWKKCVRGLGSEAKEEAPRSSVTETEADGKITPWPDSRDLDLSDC

Row | SMILES | melting point [°C] | IC50 (human CB2 receptor) [nM] | IC50 (human CB1 receptor) [nM]
1 | CC(C)(C)c1c/c(=N\C(=O)c2cccc(C(F)(F)F)c2F)n(CC2CC2)s1 [compound 56] | 85 to 87 | 0.8 | 294
2 | COCCn1c(C)c(C)s/c1=N\C(=O)c1cccc(C(F)(F)F)c1F [compound 104] | 182 to 183 | 1.7 | 327
3 | CCOCCn1c(C)c(C)s/c1=N\C(=O)c1cccc(C(F)(F)F)c1F [compound 107] | 147 to 148 | 0.5 | 18
4 | CCOCCn1c(C)c(C(C)C)s/c1=N\C(=O)c1cccc(C(F)(F)F)c1F [compound 115] | 96 to 97 | 0.5 | 25
5 | CCc1ccccc1C(=O)/N=c1\sc(C(C)(C)C)c(C)n1CC1CC1 [compound 181] | 120 to 122 | 0.8 | 115
6 | Cc1c(C(C)(C)C)s/c(=N\C(=O)c2ccccc2C(C)C)n1CC1CC1 [compound 182] | 168 to 169 | 0.3 | 22
7 | Cc1c(C(C)(C)C)s/c(=N\C(=O)c2ccccc2C(F)(F)F)n1CC1CC1 [compound 183] | 90 to 91 | 0.5 | 138
8 | Cc1cccc(C(=O)/N=c2\sc(C(C)(C)C)c(C)n2CC2CC2)c1C [compound 215] | 97 to 98 | 1.1 | 61
9 | Cc1c(C(C)(C)C)s/c(=N\C(=O)c2c(F)cccc2F)n1CC1CC1 [compound 223] | 123 to 124 | 2 | 168
10 | Cc1c(C(C)(C)C)s/c(=N\C(=O)c2cc(F)ccc2Br)n1CC1CC1 [compound 228] | 92 to 94 | 0.5 | 228
11 | Cc1c(C(C)(C)C)s/c(=N\C(=O)c2ccc(F)cc2Br)n1CC1CC1 [compound 229] | 126 to 128 | 1 | 263
12 | Cc1c(C(C)(C)C)s/c(=N\C(=O)c2cc(Cl)ccc2Cl)n1CC1CC1 [compound 232] | 129 to 131 | 0.5 | 211
13 | COc1cccc(C(=O)/N=c2\sc(C(C)(C)C)c(C)n2CC2CC2)c1OC [compound 235] | 93 to 94 | 3.4 | 315
14 | CCOc1ccc(C(=O)/N=c2\sc(C(C)(C)C)c(C)n2CC2CC2)c(OCC)c1 [compound 237] | 116 to 118 | 13.1 | 200
15 | Cc1c(F)cccc1C(=O)/N=c1\sc(C(C)(C)C)c(C)n1CC1CC1 [compound 240] | 94 to 96 | 3.4 | 168
16 | Cc1c(Cl)cccc1C(=O)/N=c1\sc(C(C)(C)C)c(C)n1CC1CC1 [compound 243] | 88 to 90 | 0.4 | 73
17 | Cc1c(Br)cccc1C(=O)/N=c1\sc(C(C)(C)C)c(C)n1CC1CC1 [compound 245] | 89 to 90 | 0.8 | 32
18 | Cc1ccc(C(=O)/N=c2\sc(C(C)(C)C)c(C)n2CC2CC2)c(Br)c1 [compound 246] | 82 to 84 | 0.8 | 319
19 | Cc1c(C(C)(C)C)s/c(=N\C(=O)c2c(F)cccc2C(F)(F)F)n1CC1CC1 [compound 256] | 128 to 130 | 1.1 | 102
20 | Cc1c(C(C)(C)C)s/c(=N\C(=O)c2cccc(C(F)(F)F)c2Cl)n1CC1CC1 [compound 258] | 93 to 94 | 0.6 | 19
21 | COc1ccc(C(=O)/N=c2\sc(C(C)(C)C)c(C)n2CC2CC2)c(C)c1 [compound 261] | 95 to 96 | 1 | 375
22 | COc1ccc(F)cc1C(=O)/N=c1\sc(C(C)(C)C)c(C)n1CC1CC1 [compound 262] | 87 to 89 | 0.6 | 435

Row | SMILES | melting point [°C] | IC50 (human CB2 receptor) [nM] | IC50 (human CB1 receptor) [nM]
23 | COc1cccc(F)c1C(=O)/N=c1\sc(C(C)(C)C)c(C)n1CC1CC1 [compound 263] | 119 to 121 | 0.6 | 56
24 | COc1cc(Cl)ccc1C(=O)/N=c1\sc(C(C)(C)C)c(C)n1CC1CC1 [compound 264] | 163 to 165 | 1 | 181
25 | COc1ccc(Cl)cc1C(=O)/N=c1\sc(C(C)(C)C)c(C)n1CC1CC1 [compound 265] | 98 to 100 | 1 | 100
26 | COc1ccc(C(=O)/N=c2\sc(C(C)(C)C)c(C)n2CC2CC2)c(OC)c1OC [compound 286] | 88 to 89 | 12.7 | 435
27 | Cc1c(C(C)(C)C)s/c(=N\C(=O)c2c(F)ccc(C(F)(F)F)c2F)n1CC1CC1 [compound 288] | 109 to 111 | 0.2 | 49
28 | Cc1c(C(C)(C)C)s/c(=N\C(=O)c2c(C(F)(F)F)ccc(Cl)c2F)n1CC1CC1 [compound 289] | 182 to 183 | 0.5 | 136
29 | Cc1ncccc1C(=O)/N=c1/sc(C(C)(C)C)c(C)n1CC1CC1 [compound 295] |  | 12.3 | 497
30 | Cc1ccnc(C)c1C(=O)/N=c1\sc(C(C)(C)C)c(C)n1CC1CC1 [compound 299] | 156 to 157 | 2.8 | 28
31 | Cc1c(C(C)(C)C)s/c(=N\C(=O)c2cccnc2Cl)n1CC1CC1 [compound 301] | 124 to 125 | 2 | 191
32 | Cc1c(C(C)(C)C)s/c(=N\C(=O)c2ncccc2Br)n1CC1CC1 [compound 304] | 141 to 142 | 2.3 | 372
33 | Cc1c(C(C)(C)C)s/c(=N\C(=O)c2nc(Cl)ccc2Cl)n1CC1CC1 [compound 306] | 143 to 145 | 0.5 | 68
34 | Cc1c(C(C)(C)C)s/c(=N\C(=O)c2c(Cl)cncc2Cl)n1CC1CC1 [compound 308] | 260 to 261 | 3.6 | 336
35 | Cc1c(C(C)(C)C)s/c(=N\C(=O)c2cc(Cl)cnc2Cl)n1CC1CC1 [compound 309] | 113 to 134 | 2.1 | 405
36 | Cc1c(C(C)(C)C)s/c(=N\C(=O)c2ccnc3ccccc23)n1CC1CC1 [compound 323] | 124 to 126 | 6.2 | 362
37 | Cc1c(C(C)(C)C)s/c(=N\C(=O)c2nccc3ccccc23)n1CC1CC1 [compound 324] |  | 2 | 353
38 | Cc1c(C(C)(C)C)s/c(=N\C(=O)c2c(Cl)ccc3cc(Cl)cnc23)n1CC1CC1 [compound 327] | 172 to 174 | 3.6 | 55
39 | Cc1c(C(C)(C)C)s/c(=N\C(=O)C2CCCCC2)n1CC1CC1 [compound 332] | 141 to 142 | 3.3 | 98
40 | CCOCCn1/c(=N/C(=O)c2cccc(Cl)c2Cl)cc(C(C)(C)C)n1C [compound 486] | 145 to 146 | 5.1 | 211
41 | CCOCCn1/c(=N/C(=O)c2cccc(C)c2Br)cc(C(C)(C)C)n1C [compound 487] | 166 to 167 | 9.9 | 248
42 | CC(C)OCCn1/c(=N/C(=O)c2cccc(Cl)c2Cl)cc(C(C)(C)C)n1C [compound 492] |  | 5 | 265
43 | Cc1c(C(=O)/N=c2\cc(C(C)(C)C)n(C)n2CCOC(C)C)cccc1C(F)(F)F [compound 494] |  | 2.1 | 279
